The NIST ThermoML archive (doi:10.1016/j.fluid.2014.07.041)
± gives the expanded uncertainty stated by the source.

Test: not given
Conditions: 298.15 K; 101.33 kPa; Liquid; Vibrating tube method

In order of falling mass density:
1. COCCO [2-methoxyethan-1-ol]  965.31 ± 2 kg/m3
2. CCOCCO [2-ethoxyethan-1-ol]  928.73 ± 2 kg/m3
3. CC1CCCCC1 [methylcyclohexane]  766.29 ± 2 kg/m3

Test: Boiling temperature at pressure P
Conditions: 101.33 kPa; Liquid; Ebulliometric method (Recirculating still)

In order of falling “Boiling temperature at pressure P” value:
1. CCOCCO [2-ethoxyethan-1-ol]  135.47 ± 0.1 °C
2. COCCO [2-methoxyethan-1-ol]  124.52 ± 0.1 °C
3. CC1CCCCC1 [methylcyclohexane]  100.73 ± 0.1 °C
